According to article PMC6273687, “Design, Synthesis and Biological Evaluation of Novel Primaquine-Cinnamic Acid Conjugates of the Amide and Acylsemicarbazide Type” (Molecules, 2016):

Columns and labels:
[1] = test system: CEM acute lymphoblastic leukemia cell line; test: Growth inhibition of tumor cell lines in vitro (MTT / cell counting); assay type: cell-based; conditions: Homo sapiens, 96 h, 4 days
Description: (§1) The experiments were carried out on a murine lymphocytic leukemia cell line (L1210) and five human tumor cell lines: CEM, HeLa, NCI-H460, SW 620 and MCF-7. The cells were cultured as monolayers and maintained in Dulbecco′s modified Eagle medium (DMEM) supplemented with 10% fetal bovine serum (FBS), 2 mM L-glutamine, 100 U/mL penicillin and 100 μg/mL streptomycin in a humidified atmosphere with 5% CO2 at 37 °C.
(§2) The growth inhibition activity of the compounds was assessed as described previously. The cell lines were inoculated onto a series of standard 96-well microtiter plates on day 0, at 1.5 × 10^4 cells/mL (SW 620, H460) to 2.5 × 10^4 cells/mL (MCF-7, CEM and L1210), depending on the growth of the tumor cell line. Test agents were then added in ten-fold dilutions (10^−8 to 10^−4 M) and the cell cultures were then incubated for 3–4 days with 5% CO2 at 37 °C. Working dilutions of the compounds were freshly prepared on the day of testing.
(§3) After 3 (MCF-7, SW 620, NCI-H460) or 4 days (CEM, L1210), the cell growth rate was evaluated first light microscopically, then by viable cell counting and/or by performing the MTT assay, which detects dehydrogenase activity in live, not dead, cells. The absorbance (A) was measured on a microplate reader at 570 nm. The absorbance is directly proportional to the number of living, metabolically active cells. […] If however, all of the tested concentrations produce PGs exceeding the respective reference level of effect (e.g., PG value of 50), then the highest tested concentration is assigned as the default value, which is preceded by a “>” sign. Minimum two individual experiments were carried out and each test point was performed in quadruplicate.

[2] = test system: HeLa cervical carcinoma cell line; test: as above; assay type: cell-based; conditions: Homo sapiens
Description: as §1, §2, §3

[3] = test system: L1210 murine lymphocytic leukemia cell line; test: as above; assay type: cell-based; conditions: Mus musculus, 96 h; L1210, 4 days
Description: as §1, §2, §3

[4] = test system: NCI-H460 lung carcinoma cell line; test: as above; assay type: cell-based, human; conditions: Homo sapiens, 72 h; NCI-H460, 3 days
Description: as §1, §2, §3

colon carcinoma HCT 116 = test: Growth inhibition of tumor cell lines in vitro (reference drugs); assay type: cell-based; conditions: Homo sapiens; colon carcinoma HCT 116 (footnote b, printed in SW 620 column)
[5] = test system: SW 620 colon carcinoma cell line; test: Growth inhibition of tumor cell lines in vitro (MTT / cell counting); assay type: cell-based; conditions: Homo sapiens, 72 h; SW 620, 3 days
Description: as §1, §2, §3

[6] = test system: MCF-7 breast carcinoma cell line; test: as above; assay type: cell-based, human; conditions: Homo sapiens, MCF7, 72 h; MCF-7, 3 days
Description: as §1, §2, §3

[7] = Interaction with the stable radical DPPH (reducing ability)
Description: To a solution of DPPH in absolute ethanol the appropriate volume of the compounds (50 or 100 µM final concentrations) dissolved in DMSO was added. The absorbance was recorded at 517 nm after 20 and 60 min at room temperature. The experiments were repeated at least in triplicate and the standard deviation of absorbance was less than 10% of the mean. NDGA was used under the same experimental conditions as a reference compound.

[8] = target: T1, soybean lipoxygenase (LOX) (Glycine max, UniProt P08170); test: LOX inhibition study in vitro; assay type: biochemical; conditions: values in parentheses in Table 3
T1 construct: purchased Sigma-Aldrich
T1 sequence (P08170 1-839): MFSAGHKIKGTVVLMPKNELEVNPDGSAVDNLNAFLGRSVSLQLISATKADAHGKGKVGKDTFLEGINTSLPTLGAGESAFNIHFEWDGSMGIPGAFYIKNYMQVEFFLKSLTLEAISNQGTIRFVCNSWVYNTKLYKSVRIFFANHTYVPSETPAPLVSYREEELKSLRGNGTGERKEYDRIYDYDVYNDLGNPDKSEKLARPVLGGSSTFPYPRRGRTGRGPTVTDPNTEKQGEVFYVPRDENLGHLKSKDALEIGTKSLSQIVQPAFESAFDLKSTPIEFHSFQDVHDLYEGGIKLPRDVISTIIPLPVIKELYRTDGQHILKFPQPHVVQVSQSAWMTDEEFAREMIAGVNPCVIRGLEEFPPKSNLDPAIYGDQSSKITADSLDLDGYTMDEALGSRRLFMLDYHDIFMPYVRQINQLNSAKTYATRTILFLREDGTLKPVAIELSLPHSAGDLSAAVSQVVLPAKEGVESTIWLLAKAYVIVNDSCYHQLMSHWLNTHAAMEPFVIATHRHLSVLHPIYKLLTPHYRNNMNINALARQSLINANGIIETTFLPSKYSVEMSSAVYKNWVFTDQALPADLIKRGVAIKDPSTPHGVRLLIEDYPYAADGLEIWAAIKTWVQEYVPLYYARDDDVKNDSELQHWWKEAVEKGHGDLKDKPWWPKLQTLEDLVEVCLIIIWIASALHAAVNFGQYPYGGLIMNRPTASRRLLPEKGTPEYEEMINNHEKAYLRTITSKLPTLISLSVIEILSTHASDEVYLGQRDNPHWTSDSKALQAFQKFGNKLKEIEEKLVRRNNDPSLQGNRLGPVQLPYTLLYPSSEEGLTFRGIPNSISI
Description: LOX inhibitory assay in vitro was accomplished as described previously. The test compounds (stock solutions 10 mM in DMSO) were incubated at room temperature with sodium linoleate (c = 0.1 mM) and 0.2 mL of LOX enzyme solution (1/9 × 10^−4 m/V in saline). The conversion of sodium linoleate to 13-hydroperoxylinoleic acid was measured at 234 nm and compared with the reference inhibitor. Several concentrations were used for the IC50 determination.

[9] = Inhibition of linoleic acid peroxidation (AAPH-induced); conditions: 5 × 10^−5 M
Description: For initiating the lipid peroxidation free radical AAPH was used. Final solution in the UV cuvette consisted of 10 μL linoleate sodium solution (c = 16 mM), 0.93 mL phosphate buffer (c = 0.05 M), pH 7.4, thermostated at 37 °C. 50 μL AAPH solution (c = 40 mM) and 10 μL of the tested compounds were added. The experiment was performed at 37 °C under air. The oxidation of linoleic acid sodium salt was monitored at 234 nm. The assays were repeated at least in triplicate and the standard deviation of absorbance was less than 10% of the mean. Trolox was used under the same experimental conditions as a reference compound.

HEL cells = test: Cytotoxicity assay, alteration of HEL cell morphology (MCC); assay type: cell-based, human; conditions: 3 days
Description: Cytotoxicity measurements were based on the inhibition of HEL cell growth. Cells were seeded at 5 × 10^3 cells/well into 96-well microtiter plates. Then, medium containing different concentrations of the test compounds was added. After 3 days of incubation at 37 °C, the alteration of morphology of the cell cultures was recorded light microscopically. Cytotoxicity was expressed as MCC.

lung adenocarcinoma A549 = test: Growth inhibition of tumor cell lines in vitro (reference drug); assay type: cell-based; conditions: Homo sapiens; lung adenocarcinoma A549 (footnote c, printed in NCI-H460 column)

SMILES	IC50 [1]	IC50 [2]	IC50 [3]	IC50 [4]	IC50 [5]	IC50 [6]	IC50 [8]	IC50 (lung adenocarcinoma A549)	IC50 (colon carcinoma HCT 116)	DPPH-reducing ability RA (%) ([7]; 1 × 10^−4 M, 20 min)	DPPH-reducing ability RA (%) ([7]; 1 × 10^−4 M, 60 min)	DPPH-reducing ability RA (%) ([7]; 5 × 10^−5 M, 20 min)	DPPH-reducing ability RA (%) ([7]; 5 × 10^−5 M, 60 min)	LP Inhibition (%) [9]	MCC (minimum cytotoxic concentration) (HEL cells)
O=c1[nH]cc(F)c(=O)[nH]1 [5-FU, 5-fluorouracil, reference compound]	18 ± 5 µM	0.54 ± 0.1 µM	0.5 ± 0.2 µM	3 ± 0.3 µM	–	–	–	–	4 ± 0.7 µM	–	–	–	–	–	–
COc1cc(NC(C)CCCN)c2ncccc2c1 (stereo not shown) [PQ, primaquine]	–	–	–	30 ± 7 µM	–	28 ± 10 µM	–	–	20 ± 6 µM	–	–	–	–	–	–
CNC(=O)c1cc(Oc2ccc(NC(=O)Nc3ccc(Cl)c(C(F)(F)F)c3)cc2)ccn1 [SOR, sorafenib, reference compound]	3.2 ± 1.7 µM	7.1 ± 2.6 µM	4.2 ± 2.4 µM	–	7.1 ± 1.9 µM	3.9 ± 1.6 µM	–	6.1 ± 0.6 µM	–	–	–	–	–	–	–

Now from value to compound, other results behind:

IC50 [1]	IC50 [2]	IC50 [3]	IC50 [4]	IC50 [5]	IC50 [6]	IC50 [8]	IC50 (lung adenocarcinoma A549)	SMILES	IC50 (colon carcinoma HCT 116)	DPPH-reducing ability RA (%) ([7]; 1 × 10^−4 M, 20 min)	DPPH-reducing ability RA (%) ([7]; 1 × 10^−4 M, 60 min)	DPPH-reducing ability RA (%) ([7]; 5 × 10^−5 M, 20 min)	DPPH-reducing ability RA (%) ([7]; 5 × 10^−5 M, 60 min)	LP Inhibition (%) [9]	MCC (minimum cytotoxic concentration) (HEL cells)
1.3 ± 0.7 µM	2.4 ± 0.2 µM	1.7 ± 0.4 µM	> 100 µM	> 100 µM	0.4 ± 0.2 µM	50 µM	–	COc1ccc(/C=C/C(=O)NNC(=O)NCCCC(C)Nc2cc(OC)cc3cccnc23)cc1 (stereo not shown) [7c, (E)-1-(3-(4-Methoxyphenyl)acryloyl)-4-(4-(6-methoxyquinolin-8-ylamino)pentyl)semicarbazide]	–	39%	100%	54%	100%	89%	around 20 μΜ
0.9 ± 0.7 µM	2.7 ± 1.2 µM	1.6 ± 0.7 µM	20 ± 0.7 µM	21 ± 4 µM	0.2 ± 0.2 µM	70 µM	–	COc1cc(NC(C)CCCNC(=O)NNC(=O)/C=C/c2ccc(Cl)cc2)c2ncccc2c1 (stereo not shown) [7g, (E)-1-(3-(4-Chlorophenyl)acryloyl)-4-(4-(6-methoxyquinolin-8-ylamino)pentyl)semicarbazide]	–	100%	100%	66%	100%	89%	around 20 μΜ
